Measurements as given in US9919998B2, “Antibacterial agents: Nα-aroyl-N-aryl-phenylalaninamides” (priority 2014, dated 2018).
Values after ≈ are worked out from the molar mass of the structure shown.

Tests used:
Type in all cases: cell-based
[1] = system: Mycobacterium tuberculosis H37Rv; assay: Microplate Alamar Blue assay (MABA) MIC, M. tuberculosis; details: read-out: MIC Mycobacterium tuberculosis H37Rv
Description: (§1) Minimal inhibitory concentrations (MICs) in Mycobacterium tuberculosis H37Rv and Mycobacterium avium ATCC 25291 were quantified using microplate Alamar Blue assays as described (MABA; [Collins, L. & Franzblau, S. (1997) Microplate Alamar Blue assay versus BACTEC 460 system for high-throughput screening of compounds against Mycobacterium tuberculosis and Mycobacterium avium. Antimicrob. Agents Chemother. 41, 1004-1009]).

[2] = system: Mycobacterium smegmatis ATCC 19420; assay: Broth microdilution MIC, M. smegmatis; details: Mycolicibacterium smegmatis, ATCC19420, M. smegmatis ATCC 19420; read-out: MIC Mycobacterium smegmatis ATCC 19420
Description: MICs in Mycobacterium smegmatis ATCC 19420 and Mycobacterium smegmatis ATCC 19420 derivatives were quantified using broth microdilution assays as described [Clinical and Laboratory Standards Institute (CLSI/NCCLS) (2009) Methods for Dilution Antimicrobial Susceptibility Tests for Bacteria That Grow Aerobically; Approved Standard, Eighth Edition. CLIS Document M07-A8 (CLIS, Wayne Pa.)].

[3] = system: Mycobacterium avium ATCC 25291; assay: Microplate Alamar Blue assay (MABA) MIC, M. avium; details: ATCC25291, M. avium ATCC 25291
Description: as §1

[4] = system: Vero E6 ATCC CRL1586 cells; assay: Mammalian-cell cytotoxicity, minimal cytotoxic concentration (CellTiter96)
Experimental: Minimal cytotoxic concentrations (MCCs) against mammalian cells in culture were determined using Vero E6 ATCC CRL1586 cells and the CellTiter96 assay kit (Promega, Inc.). […]

| SMILES | MIC [1] [µg/mL] | MIC [2] [µg/mL] | MIC [3] [µg/mL] | MCC mammalian cells Vero E6 ATCC CRL1586 [4] [µg/mL] |
| --- | --- | --- | --- | --- |
| Cc1ccc(F)cc1NC(=O)C(Cc1ccccc1)NC(=O)c1ccccc1C (stereo not shown) [IX-83, N-(1-((5-fluoro-2-methylphenyl)amino)-1-oxo-3-phenylpropan-2-yl)-2-methylbenzamide] | 0.78 (≈ 2 µM) | 0.195 (≈ 0.499 µM) | 1.56 (≈ 4 µM) | 1.4 |
| O=C(NC(Cc1ccccc1)C(=O)Nc1cccc2ncccc12)c1cccs1 (stereo not shown) [IX-85, N-(1-oxo-3-phenyl-1-(quinolin-5-ylamino)propan-2-yl)thiophene-2-carboxamide] | 12.5 (≈ 31.1 µM) | 0.39 (≈ 0.971 µM) | 25 (≈ 62.3 µM) | 40 |
| O=C(NC(Cc1ccccc1)C(=O)Nc1cccc2c1CCCC2)c1cccs1 (stereo not shown) [IX-86, N-(1-oxo-3-phenyl-1-((5,6,7,8-tetrahydronaphthalen-1-yl)amino)propan-2-yl)thiophene-2-carboxamide] | > 50 | 0.78 (≈ 1.93 µM) | > 50 | 50 |
| O=C(NC(Cc1ccccc1)C(=O)Nc1cccc2[nH]ccc12)c1ccccc1F (stereo not shown) [IX-91, N-(1-((1H-indol-4-yl)amino)-1-oxo-3-phenylpropan-2-yl)-2-fluorobenzamide] | 50 (≈ 125 µM) | 1.56 (≈ 3.89 µM) | 50 (≈ 125 µM) | 65 |
| Cc1ccc(Cl)cc1NC(=O)C(Cc1ccc(O)cc1)NC(=O)c1cccs1 (stereo not shown) [IX-94, N-(1-((5-chloro-2-methylphenyl)amino)-3-(4-hydroxyphenyl)-1-oxopropan-2-yl)thiophene-2-carboxamide] | 3.12 (≈ 7.53 µM) | 0.78 (≈ 1.88 µM) | 3.12 (≈ 7.53 µM) | 58 |
| O=C(NC(Cc1ccccc1)C(=O)Nc1cccc2cc[nH]c12)c1ccccc1Cl (stereo not shown) [IX-95, N-(1-((1H-indol-7-yl)amino)-1-oxo-3-phenylpropan-2-yl)-2-chlorobenzamide] | 12.5 (≈ 29.9 µM) | 0.39 (≈ 0.933 µM) | 25 (≈ 59.8 µM) | 20 |
| O=C(NC(Cc1ccccc1)C(=O)Nc1cccc2cc[nH]c12)c1ccccc1F (stereo not shown) [IX-96, N-(1-((1H-indol-7-yl)amino)-1-oxo-3-phenylpropan-2-yl)-2-fluorobenzamide] | 12.5 (≈ 31.1 µM) | 0.78 (≈ 1.94 µM) | 25 (≈ 62.3 µM) | 44 |
| Cc1ccccc1C(=O)NC(Cc1ccccc1)C(=O)Nc1cccc2cc[nH]c12 (stereo not shown) [IX-97, N-(1-((1H-indol-7-yl)amino)-1-oxo-3-phenylpropan-2-yl)-2-methylbenzamide] | 6.25 (≈ 15.7 µM) | 0.39 (≈ 0.981 µM) | 12.5 (≈ 31.4 µM) | 15 |
| O=C(NC(Cc1ccccc1)C(=O)Nc1cccc2c1OCO2)c1cccs1 (stereo not shown) [IX-98, N-(1-(benzo[d][1,3]dioxol-4-ylamino)-1-oxo-3-phenylpropan-2-yl)thiophene-2-carboxamide] | 6.25 (≈ 15.8 µM) | 0.195 (≈ 0.494 µM) | 3.12 (≈ 7.92 µM) | 13 |
| O=C(NC(Cc1ccccc1)C(=O)Nc1cccc2c1OCO2)c1ccccc1F (stereo not shown) [IX-99, N-(1-(benzo[d][1,3]dioxol-4-ylamino)-1-oxo-3-phenylpropan-2-yl)-2-fluorobenzamide] | 3.12 (≈ 7.69 µM) | 0.195 (≈ 0.48 µM) | 6.25 (≈ 15.4 µM) | >100 |
| O=C(NC(Cc1ccccc1)C(=O)Nc1ccccc1OC(F)F)c1cccs1 (stereo not shown) [IX-100, N-(1-((2-(difluoromethoxy)phenyl)amino)-1-oxo-3-phenylpropan-2-yl)thiophene-2-carboxamide] | 6.25 (≈ 15 µM) | 0.39 (≈ 0.936 µM) | 6.25 (≈ 15 µM) | 42 |
| O=C(NC(Cc1ccccc1)C(=O)Nc1ccccc1OC(F)F)c1ccccc1F (stereo not shown) [IX-101, N-(1-((2-(difluoromethoxy)phenyl)amino)-1-oxo-3-phenylpropan-2-yl)-2-fluorobenzamide] | 6.25 (≈ 14.6 µM) | 0.39 (≈ 0.91 µM) | 6.25 (≈ 14.6 µM) | >100 |
| Cc1ccc(Br)cc1NC(=O)C(Cc1ccc(O)cc1)NC(=O)c1ccccc1 (stereo not shown) [IX-103, N-(1-((5-bromo-2-methylphenyl)amino)-3-(4-hydroxyphenyl)-1-oxopropan-2-yl)benzamide] | 12.5 (≈ 27.6 µM) | 0.78 (≈ 1.72 µM) | 12.5 (≈ 27.6 µM) | 62 |
| O=C(NC(Cc1ccccc1)C(=O)Nc1cccc2[nH]ccc12)c1cccs1 (stereo not shown) [IX-104, N-(1-((1H-indol-4-yl)amino)-1-oxo-3-phenylpropan-2-yl)thiophene-2-carboxamide] | 25 (≈ 64.2 µM) | 0.39 (≈ 1 µM) | 50 (≈ 128 µM) | 33 |
| O=C(NC(Cc1ccccc1)C(=O)Nc1ccccc1N1CCCC1)c1cccs1 (stereo not shown) [IX-105, N-(1-oxo-3-phenyl-1-((2-(pyrrolidin-1-yl)phenyl)amino)propan-2-yl)thiophene-2-carboxamide] | 6.25 (≈ 14.9 µM) | 0.78 (≈ 1.86 µM) | 25 (≈ 59.6 µM) | >100 |
| COc1cccc(NC(=O)C(Cc2ccccc2)NC(=O)c2cccs2)c1C (stereo not shown) [IX-107, N-(1-((3-methoxy-2-methylphenyl)amino)-1-oxo-3-phenylpropan-2-yl)thiophene-2-carboxamide] | > 50 | 0.78 (≈ 1.98 µM) | 50 (≈ 127 µM) | >100 |
| COc1cccc(NC(=O)C(Cc2ccccc2)NC(=O)c2ccccc2F)c1C (stereo not shown) [IX-108, 2-fluoro-N-(1-((3-methoxy-2-methylphenyl)amino)-1-oxo-3-phenylpropan-2-yl)benzamide] | 12.5 (≈ 30.8 µM) | 0.78 (≈ 1.92 µM) | 25 (≈ 61.5 µM) | 80 |
| Cc1ccccc1C(=O)NC(Cc1ccccc1)C(=O)Nc1cc(F)ccc1OCF (stereo not shown) [IX-111, N-(1-((5-fluoro-2-(fluoromethoxy)phenyl)amino)-1-oxo-3-phenyl-propan-2-yl)-2-methylbenzamide] | 0.39 (≈ 0.919 µM) | 0.39 (≈ 0.919 µM) | 0.78 (≈ 1.84 µM) | 100 |
| O=C(NC(Cc1ccccc1)C(=O)Nc1ccccc1OC(F)F)c1ccccc1Cl (stereo not shown) [IX-119, 2-chloro-N-(1-((2-(difluoromethoxy)phenyl)amino)-1-oxo-3-phenylpropan-2-yl)benzamide] | 3.12 (≈ 7.02 µM) | 0.39 (≈ 0.877 µM) | 12.5 (≈ 28.1 µM) | 5.6 |
| Cc1ccccc1C(=O)NC(Cc1ccccc1)C(=O)Nc1ccccc1OC(F)F (stereo not shown) [IX-120, N-(1-((2-(difluoromethoxy)phenyl)amino)-1-oxo-3-phenylpropan-2-yl)-2-methylbenzamide] | 3.12 (≈ 7.36 µM) | 0.19 (≈ 0.448 µM) | 3.12 (≈ 7.36 µM) | >100 |
| O=C(NC(Cc1ccccc1)C(=O)Nc1cccc2c1OC(F)(F)O2)c1ccccc1F (stereo not shown) [IX-122, N-(1-((2,2-difluorobenzo[d][1,3]dioxol-4-yl)amino)-1-oxo-3-phenyl-propan-2-yl)-2-fluorobenzamide] | > 50 | 1.56 (≈ 3.53 µM) | > 50 | 94 |
| O=C(NC(Cc1ccccc1)C(=O)Nc1cccc2c1OC(F)(F)O2)c1cccs1 (stereo not shown) [IX-124, N-(1-((2,2-difluorobenzo[d][1,3]dioxol-4-yl)amino)-1-oxo-3-phenyl-propan-2-yl)thiophene-2-carboxamide] | > 50 | 0.78 (≈ 1.81 µM) | > 50 | 38 |
